Results reported in patent US20240217961A1 (MONOPTEROS THERAPEUTICS, INC., priority 2021, published 2024).

Experiments:
Assay in all cases: CYP phenotyping, recombinant CYP enzyme incubation
Type in all cases: in vitro ADME
CYP1A2 = target: T1, CYP1A2 (Homo sapiens, UniProt P05177)
T1 sequence (P05177 1-516): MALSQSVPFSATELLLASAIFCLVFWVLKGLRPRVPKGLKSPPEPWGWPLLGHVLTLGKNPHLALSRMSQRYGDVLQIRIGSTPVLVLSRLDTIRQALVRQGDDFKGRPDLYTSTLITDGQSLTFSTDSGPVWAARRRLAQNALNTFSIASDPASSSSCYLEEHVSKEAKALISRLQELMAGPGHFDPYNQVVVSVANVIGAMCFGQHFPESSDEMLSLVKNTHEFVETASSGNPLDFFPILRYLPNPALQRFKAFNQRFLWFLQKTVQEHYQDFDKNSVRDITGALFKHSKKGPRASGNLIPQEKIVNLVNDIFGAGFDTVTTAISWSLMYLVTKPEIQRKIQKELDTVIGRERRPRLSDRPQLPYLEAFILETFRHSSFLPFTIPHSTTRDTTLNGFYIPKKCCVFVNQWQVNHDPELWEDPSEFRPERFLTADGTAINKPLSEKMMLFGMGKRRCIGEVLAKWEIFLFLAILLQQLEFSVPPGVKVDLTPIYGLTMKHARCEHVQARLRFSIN
Method: (§1) These incubations were carried out at a concentration of 1 µM and contained 50 pmol/ml of CYP protein. Samples were taken at 0, 5, 10, 15, 20 and 30 minutes. The CLint and t1/2 were calculated from the data.

CYP3A4 = CYP3A4 (Homo sapiens, UniProt P08684)
CYP3A4, sequence (P08684 whole entry): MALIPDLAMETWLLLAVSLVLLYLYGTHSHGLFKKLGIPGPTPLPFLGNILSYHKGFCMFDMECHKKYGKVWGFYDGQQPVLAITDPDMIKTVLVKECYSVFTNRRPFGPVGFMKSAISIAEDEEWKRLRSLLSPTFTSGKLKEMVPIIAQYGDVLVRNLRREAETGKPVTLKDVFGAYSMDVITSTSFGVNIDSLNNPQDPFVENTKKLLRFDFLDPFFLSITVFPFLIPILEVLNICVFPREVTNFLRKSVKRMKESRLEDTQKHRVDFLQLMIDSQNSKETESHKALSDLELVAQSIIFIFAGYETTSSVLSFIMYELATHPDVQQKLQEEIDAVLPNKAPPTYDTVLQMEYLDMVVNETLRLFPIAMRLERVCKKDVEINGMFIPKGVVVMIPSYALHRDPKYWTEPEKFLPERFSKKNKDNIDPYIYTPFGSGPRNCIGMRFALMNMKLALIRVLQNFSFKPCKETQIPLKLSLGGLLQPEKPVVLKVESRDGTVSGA
Method: as §1

human CYP2A6 = target: T2, human CYP2A6 (Homo sapiens, UniProt P11509)
T2 sequence (P11509 1-494): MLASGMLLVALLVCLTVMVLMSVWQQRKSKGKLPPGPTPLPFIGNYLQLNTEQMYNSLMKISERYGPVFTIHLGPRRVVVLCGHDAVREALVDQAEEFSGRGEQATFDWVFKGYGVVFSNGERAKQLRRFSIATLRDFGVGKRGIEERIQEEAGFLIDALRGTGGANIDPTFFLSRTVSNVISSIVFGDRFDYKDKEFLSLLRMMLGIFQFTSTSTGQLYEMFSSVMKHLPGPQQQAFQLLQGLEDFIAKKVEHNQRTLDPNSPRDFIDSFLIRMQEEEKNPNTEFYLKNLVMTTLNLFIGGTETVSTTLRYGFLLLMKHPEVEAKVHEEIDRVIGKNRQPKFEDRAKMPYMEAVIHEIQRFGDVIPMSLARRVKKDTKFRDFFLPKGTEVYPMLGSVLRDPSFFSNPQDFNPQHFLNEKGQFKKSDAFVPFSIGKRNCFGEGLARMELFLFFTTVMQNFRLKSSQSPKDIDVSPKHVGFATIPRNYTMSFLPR
Method: as §1

CYP2D6 = CYP2D6 (Homo sapiens, UniProt P10635)
CYP2D6, sequence (P10635 whole entry): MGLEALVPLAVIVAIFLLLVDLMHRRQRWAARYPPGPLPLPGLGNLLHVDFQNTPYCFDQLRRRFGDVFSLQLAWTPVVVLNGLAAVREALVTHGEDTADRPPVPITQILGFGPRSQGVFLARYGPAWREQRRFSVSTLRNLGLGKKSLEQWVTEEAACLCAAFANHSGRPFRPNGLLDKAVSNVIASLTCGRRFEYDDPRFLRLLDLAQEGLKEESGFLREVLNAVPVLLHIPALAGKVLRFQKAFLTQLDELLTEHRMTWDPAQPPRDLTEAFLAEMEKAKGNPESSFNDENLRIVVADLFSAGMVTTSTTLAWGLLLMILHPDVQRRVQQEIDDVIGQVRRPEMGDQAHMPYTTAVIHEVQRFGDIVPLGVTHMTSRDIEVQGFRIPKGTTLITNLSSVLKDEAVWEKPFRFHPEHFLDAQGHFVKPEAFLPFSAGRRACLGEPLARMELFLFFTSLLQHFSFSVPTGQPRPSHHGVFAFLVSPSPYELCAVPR
Method: as §1

CYP2C8 = target: T3, CYP2C8 (Homo sapiens, UniProt P10632)
T3 sequence (P10632 1-490): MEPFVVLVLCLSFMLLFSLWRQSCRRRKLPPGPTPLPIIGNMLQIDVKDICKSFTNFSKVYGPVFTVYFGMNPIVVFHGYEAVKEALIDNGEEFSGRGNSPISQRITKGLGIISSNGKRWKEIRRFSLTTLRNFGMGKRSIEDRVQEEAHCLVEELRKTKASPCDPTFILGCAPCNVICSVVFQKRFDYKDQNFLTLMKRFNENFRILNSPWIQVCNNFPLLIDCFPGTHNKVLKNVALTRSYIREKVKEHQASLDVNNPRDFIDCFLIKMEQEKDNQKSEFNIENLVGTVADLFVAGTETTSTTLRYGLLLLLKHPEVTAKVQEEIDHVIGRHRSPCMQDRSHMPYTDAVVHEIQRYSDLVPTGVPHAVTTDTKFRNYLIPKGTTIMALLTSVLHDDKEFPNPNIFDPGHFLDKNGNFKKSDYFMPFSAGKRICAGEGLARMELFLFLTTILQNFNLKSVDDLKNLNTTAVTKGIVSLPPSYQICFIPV
Method: as §1

CYP2C9 = CYP2C9 (Homo sapiens, UniProt P11712)
CYP2C9, sequence (P11712 whole entry): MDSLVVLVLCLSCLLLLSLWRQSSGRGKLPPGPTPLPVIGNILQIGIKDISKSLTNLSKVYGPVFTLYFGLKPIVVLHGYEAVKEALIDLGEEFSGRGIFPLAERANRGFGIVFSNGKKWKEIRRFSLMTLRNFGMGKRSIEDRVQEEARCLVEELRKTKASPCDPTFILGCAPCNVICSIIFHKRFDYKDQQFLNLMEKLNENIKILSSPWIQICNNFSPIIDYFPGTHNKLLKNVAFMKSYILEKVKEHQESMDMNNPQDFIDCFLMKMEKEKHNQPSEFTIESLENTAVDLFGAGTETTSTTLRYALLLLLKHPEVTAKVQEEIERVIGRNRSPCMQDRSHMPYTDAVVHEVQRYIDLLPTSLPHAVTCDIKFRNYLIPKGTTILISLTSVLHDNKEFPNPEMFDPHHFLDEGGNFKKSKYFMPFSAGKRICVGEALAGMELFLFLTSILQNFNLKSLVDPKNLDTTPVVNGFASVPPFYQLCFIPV
Method: as §1

human CYP3A5 = human CYP3A5 (Homo sapiens, UniProt P20815)
human CYP3A5, sequence (P20815 whole entry): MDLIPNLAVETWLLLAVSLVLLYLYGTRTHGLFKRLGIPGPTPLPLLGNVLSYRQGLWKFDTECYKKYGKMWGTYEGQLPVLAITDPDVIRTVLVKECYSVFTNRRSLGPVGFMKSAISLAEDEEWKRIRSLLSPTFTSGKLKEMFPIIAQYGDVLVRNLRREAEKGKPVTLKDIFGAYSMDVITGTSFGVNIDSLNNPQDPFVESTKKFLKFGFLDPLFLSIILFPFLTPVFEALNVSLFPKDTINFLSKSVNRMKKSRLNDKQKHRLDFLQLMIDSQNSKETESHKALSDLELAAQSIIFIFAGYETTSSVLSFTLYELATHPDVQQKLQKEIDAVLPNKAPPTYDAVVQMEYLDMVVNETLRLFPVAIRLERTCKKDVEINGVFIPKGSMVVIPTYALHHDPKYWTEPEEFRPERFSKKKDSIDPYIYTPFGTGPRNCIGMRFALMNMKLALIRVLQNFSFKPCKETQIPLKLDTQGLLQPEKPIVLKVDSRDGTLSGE
Method: as §1

CYP2C19 = CYP2C19 (Homo sapiens, UniProt P33261)
CYP2C19, sequence (P33261 whole entry): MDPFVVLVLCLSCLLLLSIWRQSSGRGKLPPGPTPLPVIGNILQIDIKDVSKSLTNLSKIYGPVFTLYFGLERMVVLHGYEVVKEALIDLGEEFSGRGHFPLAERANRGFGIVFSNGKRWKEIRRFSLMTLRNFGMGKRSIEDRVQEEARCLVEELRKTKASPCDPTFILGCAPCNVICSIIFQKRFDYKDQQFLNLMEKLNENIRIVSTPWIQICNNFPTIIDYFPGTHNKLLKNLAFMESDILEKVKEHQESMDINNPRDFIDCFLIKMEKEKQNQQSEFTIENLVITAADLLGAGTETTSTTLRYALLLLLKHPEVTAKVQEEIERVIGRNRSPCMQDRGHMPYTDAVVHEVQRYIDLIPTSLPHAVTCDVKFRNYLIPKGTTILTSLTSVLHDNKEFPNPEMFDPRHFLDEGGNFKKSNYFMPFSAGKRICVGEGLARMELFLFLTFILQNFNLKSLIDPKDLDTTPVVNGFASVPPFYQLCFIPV
Method: as §1

human CYP2E1 = human CYP2E1 (Homo sapiens, UniProt P05181)
human CYP2E1, sequence (P05181 whole entry): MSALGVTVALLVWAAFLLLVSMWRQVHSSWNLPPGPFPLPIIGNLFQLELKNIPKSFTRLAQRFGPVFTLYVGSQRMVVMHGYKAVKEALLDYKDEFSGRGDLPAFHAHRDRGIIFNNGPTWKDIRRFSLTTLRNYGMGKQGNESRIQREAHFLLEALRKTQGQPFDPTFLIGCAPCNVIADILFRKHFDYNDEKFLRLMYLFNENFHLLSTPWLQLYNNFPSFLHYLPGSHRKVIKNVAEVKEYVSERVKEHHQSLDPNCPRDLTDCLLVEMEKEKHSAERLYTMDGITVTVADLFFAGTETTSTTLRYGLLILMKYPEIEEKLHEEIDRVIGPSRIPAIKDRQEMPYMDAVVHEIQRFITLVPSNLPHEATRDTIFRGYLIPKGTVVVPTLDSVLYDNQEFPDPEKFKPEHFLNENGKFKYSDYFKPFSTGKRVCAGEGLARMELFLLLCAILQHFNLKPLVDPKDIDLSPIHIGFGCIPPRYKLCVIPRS
Method: as §1

CN1CCC[C@H](CN2c3ccccc3Sc3ccccc32)C1 [(S)-mepazine, (S)-10-((1-methylpiperidin-3-yl)methyl)-10H-phenothiazine]
Contribution % (CYP1A2; CYP1A2): 9.61% | contribution % (CYP1A2; CYP1A2): 9.61% | half-life at 1 µM (CYP1A2; human, recombinant CYP1A2, 1 µM, 50 pmol/ml of CYP protein, mean ± SD, n = 3): 51.5 ± 5.99 min | CLint (CYP1A2; recombinant CYP1A2, 1 µM, 50 pmol/ml of CYP protein, mean ± SD, n = 3): 0.272 ± 0.0339 μL/min/pmol CYP | CLint (CYP1A2; recombinant CYP1A2, 1 µM, 50 pmol/ml CYP protein): 0.272 µL/min/pmol | Contribution % (CYP3A4; CYP3A4): 50.3% | contribution % (CYP3A4; CYP3A4): 50.3% | half-life at 1 µM (CYP3A4; human, recombinant CYP3A4, 1 µM, 50 pmol/ml of CYP protein, mean ± SD, n = 3): 23.5 ± 2.35 min | CLint (CYP3A4; recombinant CYP3A4, 1 µM, 50 pmol/ml of CYP protein, mean ± SD, n = 3): 0.593 ± 0.0562 μL/min/pmol CYP | CLint (CYP3A4; recombinant CYP3A4, 1 µM, 50 pmol/ml CYP protein): 0.593 µL/min/pmol | Contribution % (human CYP2A6; CYP2A6): 0.00% | metabolism by recombinant CYP isoform (human CYP2A6; recombinant CYP2A6): not found to substantially metabolize | CLint (human CYP2A6; recombinant CYP2A6, 1 µM, turnover not significant and > 80% remaining at last time point reported as 0.00): 0.00 μL/min/pmol CYP | t1/2 (human CYP2A6; recombinant CYP2A6, 1 µM, turnover not significant and > 80% remaining at last time point reported as ∞): ∞ | Contribution % (CYP2D6; CYP2D6): 11.0% | contribution % (CYP2D6; CYP2D6): 11.0% | CYP isoform participating in metabolism (CYP2D6; based on expressed human cytochrome P450s and liver microsomes with specific inhibitors): CYP2D6 is major CYP isoform | half-life at 1 µM (CYP2D6; human, recombinant CYP2D6, 1 µM, 50 pmol/ml of CYP protein, mean ± SD, n = 3): 9.94 ± 0.819 min | CLint (CYP2D6; recombinant CYP2D6, 1 µM, 50 pmol/ml of CYP protein, mean ± SD, n = 3): 1.40 ± 0.112 μL/min/pmol CYP | CLint (CYP2D6; recombinant CYP2D6, 1 µM, 50 pmol/ml CYP protein): 1.40 µL/min/pmol | Contribution % (CYP2C8; CYP2C8): 12.8% | contribution % (CYP2C8; CYP2C8): 12.8% | half-life at 1 µM (CYP2C8; human, recombinant CYP2C8, 1 µM, 50 pmol/ml of CYP protein, mean ± SD, n = 3): 57.2 ± 14.4 min | CLint (CYP2C8; recombinant CYP2C8, 1 µM, 50 pmol/ml of CYP protein, mean ± SD, n = 3): 0.254 ± 0.0720 μL/min/pmol CYP | CLint (CYP2C8; recombinant CYP2C8, 1 µM, 50 pmol/ml CYP protein): 0.254 µL/min/pmol | Contribution % (CYP2C9; CYP2C9): 8.24% | contribution % (CYP2C9; CYP2C9): 8.24% | half-life at 1 µM (CYP2C9; human, recombinant CYP2C9, 1 µM, turnover observed for one or two replicates only, t1/2 reported as minimum): 127 min | CLint (CYP2C9; recombinant CYP2C9, 1 µM, turnover observed for one or two replicates only, Clint reported as maximum): 0.109 μL/min/pmol CYP | CLint (CYP2C9; recombinant CYP2C9, turnover observed in one of the three replicates): 0.109 µL/min/pmol | Contribution % (human CYP3A5): 0.0651% | contribution % (human CYP3A5): 0.0651% | Contribution % (CYP2C19; CYP2C19): 8.01% | contribution % (CYP2C19; CYP2C19): 8.01% | half-life at 1 µM (CYP2C19; human, recombinant CYP2C19, 1 µM, 50 pmol/ml of CYP protein, mean ± SD, n = 3): 25.9 ± 1.68 min | CLint (CYP2C19; recombinant CYP2C19, 1 µM, 50 pmol/ml of CYP protein, mean ± SD, n = 3): 0.537 ± 0.0361 μL/min/pmol CYP | CLint (CYP2C19; recombinant CYP2C19, 1 µM, 50 pmol/ml CYP protein): 0.537 µL/min/pmol | Contribution % (human CYP2E1; CYP2E1): 0.00% | metabolism by recombinant CYP isoform (human CYP2E1; recombinant CYP2E1): not found to substantially metabolize | CLint (human CYP2E1; recombinant CYP2E1, 1 µM, turnover not significant and > 80% remaining at last time point reported as 0.00): 0.00 μL/min/pmol CYP | t1/2 (human CYP2E1; recombinant CYP2E1, 1 µM, turnover not significant and > 80% remaining at last time point reported as ∞): ∞
